Patent US4568690A, “1-Methyl-5-p-methylbenzoylpyrrole-2-acetamidoacetanilides with antiinflammatory, analgesic, antipyretic and anti-platelet aggregant activity” (priority 1983, dated 1986)

How the values were obtained:
[1] = tested on: platelet aggregation (ADP-induced); experiment: in vitro anti-platelet aggregant activity (Born's method, ADP); format: cell-based, rat; conditions: Rattus norvegicus, Platelet, read-out: Inhibition % (platelet aggregation)
Description: This activity was studied in vitro following Born's method (G. W. R. Born, Nature, 194, 937 (1962)) and inducing platelet aggregation with ADP. […] For the aggregation test, 0.2 ml of platelet rich plasma was mixed with a NaCl solution (0.9%) to which the test substance was added up to a final volume of 0.6 ml. Incubation was fixed at 3 minutes at 27° C. After aggregation was induced with ADP, the course of the aggregation was monitored continuously with an Elvi 840 Aggregometer (Elvi Logos--Milan). The antiaggregant effects were determined by the difference in the light transmission of the sample with respect to that of the ADP control. The test compound was compared with aspirin, which has known antiplatelet aggregant activity (H. J. Weiss et al., J. Clin. Inv., 47, 2169 (1968); Platelet Aggregation and Drugs, edited by L. Caprino and E. C. Rossi, page 235, Academic Press (London), 1974).
Table VI reports the inhibition of platelet aggregation with various doses of the compounds tested at a constant ADP concentration.

carragenin-induced edema = carragenin-induced edema test (antinflammatory activity); format: in vivo, rats
Description: (§1) Preparations of the compound were administered orally and/or parenterally in a suspension in 0.59% carboxymethylcellulose in pH neutral physiological saline.
This effect was evaluated with an experimental model reproducing actue inflammation in rats: the carragenin-induced edema test was used, according to the method of C. A. Winter (G. Pharmac. Exp. Ther., 141, 369 (1963)). Table III reports the compounds tested, their concentrations, administration routes and relative percent edema inhibition.

[2] = tested on: p-phenylquinone-induced writhing; experiment: p-phenylquinone-induced writhing test (analgesic activity); format: in vivo; conditions: an hour after administration
Description: as §1
The determination was made an hour after administration of the product. The inhibitory effect on abdominal contractions induced by phenyl-p-quinone was calculated as follows: [formula]
Table IV reports the doses, the administration routes and their effectiveness expressed as % protection.

[3] = tested on: hyperthermia induced by dry purified beer yeast; experiment: antipyretic activity, beer yeast-induced hyperthermia; format: in vivo, Wistar strain male albino rats
Description: as §1
This effect was evaluated by inducing hyperthermia in Wistar strain male albino rats with an average weight of 250±10 g, injecting them intraperitoneally with a 10% suspension of dry purified beer yeast (Carlo Erba) in a volume of 10 ml/Kg of body weight, according to the method of S. Wong et al. (J. Pharmac. Exp. Ther., 185 (1), 127 (1973)).

gastric mucosa = experiment: gastric tolerance (ulcerogenic activity); conditions: orally, four consecutive days; for Mean number severity: severity scale 0-5
Description: This was studied by testing ulcerogenic activity in male Wistar rats weighing an average of 180 g, using groups of 10 animals each. Three doses of each substance were used, and one group of animals was treated with vehicle only, in a volume of 10 ml/g body weight. Each dose was administered orally for four consecutive days, and the rats were killed on the fifth day and autopsied. The ulcerogenic effect was evaluated on the following scale:
(1) each hemorrhage point >1 mm was evaluated as 1 lesion
(2) the hemorrhage points <1 were counted as follows:
(b) from 1 to 19 2 lesions
(c) from 1 to 29 3 lesions
(2) gastric mucosa irritation
(3) hemorrhage points <1 mm
(4) hemorrhage points from 1 to 3 mm
(5) hemorrhage points >3 mm
This scale was used to calculate the following index of gastric damage: [formula]

How did the inhibition at 1 µg/mL [1] turn out when `CC(=O)Oc1ccccc1C(=O)O` [Aspirin, reference compound] was run?
The inhibition at 1 µg/mL was 15%.

And the inhibition at 5 µg/mL [1]?
The inhibition at 5 µg/mL was 60%.

And the inhibition at 10 µg/mL [1]?
Its inhibition at 10 µg/mL is 100%.

What does the source list for `Cc1ccc(C(=O)c2ccc(CC(=O)O)n2C)cc1` [Tolmetin Na.2H2 O, reference compound]?
Oedema inhibition % (carragenin-induced edema; i.p., 10 mg/kg, 3 h): 33.7%; Oedema inhibition % (carragenin-induced edema; i.p., 10 mg/kg, 6 h): 30.1%; Oedema inhibition % (carragenin-induced edema; i.p., 10 mg/kg, 24 h): 0.0%; Oedema inhibition % (carragenin-induced edema; i.p., 50 mg/kg, 3 h): 47.1%; Oedema inhibition % (carragenin-induced edema; i.p., 50 mg/kg, 6 h): 44.0%; Oedema inhibition % (carragenin-induced edema; i.p., 50 mg/kg, 24 h): 0.0%; Oedema inhibition % (carragenin-induced edema; i.p., 100 mg/kg, 3 h): 58.3%; Oedema inhibition % (carragenin-induced edema; i.p., 100 mg/kg, 6 h): 52.2%; Oedema inhibition % (carragenin-induced edema; i.p., 100 mg/kg, 24 h): 5.3%; Oedema inhibition % (carragenin-induced edema; os, 10 mg/kg, 3 h): 32.0%; Oedema inhibition % (carragenin-induced edema; os, 10 mg/kg, 6 h): 20.0%; Oedema inhibition % (carragenin-induced edema; os, 10 mg/kg, 24 h): 0.0%; Oedema inhibition % (carragenin-induced edema; os, 50 mg/kg, 3 h): 46.8%; Oedema inhibition % (carragenin-induced edema; os, 50 mg/kg, 6 h): 45.0%; Oedema inhibition % (carragenin-induced edema; os, 50 mg/kg, 24 h): 0.0%; Oedema inhibition % (carragenin-induced edema; os, 100 mg/kg, 3 h): 56.1%; Oedema inhibition % (carragenin-induced edema; os, 100 mg/kg, 6 h): 54.3%; Oedema inhibition % (carragenin-induced edema; os, 100 mg/kg, 24 h): 8.9%; Protection % ([2]; i.p., 5 mg/kg): 16.5%; Protection % ([2]; i.p., 10 mg/kg): 46.2%; Protection % ([2]; i.p., 20 mg/kg): 69.3%; Protection % ([2]; os, 5 mg/kg): 15.0%; Protection % ([2]; os, 10 mg/kg): 40.6%; Protection % ([2]; os, 20 mg/kg): 62.0%; Temperature decrease % ([3]; i.p., 50 mg/kg, 1 h): 16.0%; Temperature decrease % ([3]; i.p., 50 mg/kg, 2 h): 19.0%; Temperature decrease % ([3]; i.p., 50 mg/kg, 3 h): 31.0%; Temperature decrease % ([3]; i.p., 75 mg/kg, 1 h): 20.0%; Temperature decrease % ([3]; i.p., 75 mg/kg, 2 h): 29.2%; Temperature decrease % ([3]; i.p., 75 mg/kg, 3 h): 34.7%; Temperature decrease % ([3]; i.p., 100 mg/kg, 1 h): 28.0%; Temperature decrease % ([3]; i.p., 100 mg/kg, 2 h): 39.1%; Temperature decrease % ([3]; i.p., 100 mg/kg, 3 h): 31.3%; Temperature decrease % ([3]; os, 50 mg/kg, 1 h): 18.0%; Temperature decrease % ([3]; os, 50 mg/kg, 6 h): 20.0%; Temperature decrease % ([3]; os, 50 mg/kg, 24 h): 29.5%; Temperature decrease % ([3]; os, 75 mg/kg, 1 h): 20.0%; Temperature decrease % ([3]; os, 75 mg/kg, 6 h): 26.0%; Temperature decrease % ([3]; os, 75 mg/kg, 24 h): 27.0%; Temperature decrease % ([3]; os, 100 mg/kg, 1 h): 32.0%; Temperature decrease % ([3]; os, 100 mg/kg, 6 h): 30.9%; Temperature decrease % ([3]; os, 100 mg/kg, 24 h): 47.2%; Mean number lesions (gastric mucosa; 50 mg/kg): 2; Mean number severity (gastric mucosa; 50 mg/kg): 2; Mean number lesions (gastric mucosa; 100 mg/kg): 2.5; Mean number severity (gastric mucosa; 100 mg/kg): 3.5; Mean number lesions (gastric mucosa; 200 mg/kg): 3; Mean number severity (gastric mucosa; 200 mg/kg): 4
